According to ChEMBL document CHEMBL1201861, “Genomics of Drug Sensitity in Cancer screening data, Wellcome Trust Sanger Institute”:

What was measured:
[1] = test system: P31-FUJ; assay: cells; type: functional, cell-based, Homo sapiens; details: Homo sapiens, P31-FUJ;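 note: growth inhibition of P31-FUJ cells, read out with a viability assay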
Description: SANGER: Inhibition of human P31-FUJ cell growth in a cell viability assay.

[2] = test system: TYK-nu; assay: cells; type: functional, cell-based; details: Homo sapiens;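 note: growth inhibition of human TYK-nu cells, read out by a cell viability assay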
Description: SANGER: Inhibition of human TYK-nu cell growth in a cell viability assay.

[3] = test system: TALL-1; assay: cells; type: functional, cell-based, Homo sapiens; details: Homo sapiens, TALL-1;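 note: growth inhibition of cultured human TALL-1 cells, read out by a cell viability assay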
Description: SANGER: Inhibition of human TALL-1 cell growth in a cell viability assay.

[4] = test system: MHH-CALL-2; assay: cells; type: functional, cell-based, Homo sapiens; details: Homo sapiens, MHH-CALL-2;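 note: growth inhibition of the cell line, read out in a cell viability assay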
Description: SANGER: Inhibition of human MHH-CALL-2 cell growth in a cell viability assay.

[5] = test system: Panc1005; assay: cells; type: functional, cell-based; details: Homo sapiens;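 note: growth inhibition of human PANC-10-05 cells, measured by a cell viability assay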
Description: SANGER: Inhibition of human PANC-10-05 cell growth in a cell viability assay.

[6] = test system: KYSE-410; assay: cells; type: functional, cell-based; details: Homo sapiens;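 note: growth inhibition of KYSE-410 cells, measured through a cell viability readout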
Description: SANGER: Inhibition of human KYSE-410 cell growth in a cell viability assay.

[7] = test system: MEL-HO; assay: cells; type: functional, cell-based; details: Homo sapiens
Description: SANGER: Inhibition of human MEL-HO cell growth in a cell viability assay.

[8] = test system: MDA-MB-157; assay: cells; type: functional, cell-based; details: Homo sapiens
Description: SANGER: Inhibition of human MDA-MB-157 cell growth in a cell viability assay.

[9] = test system: BC1 cell line; assay: SANGER: Inhibition of human BC-1 cell growth in a cell viability assay.; type: functional, cell-based; details: Homo sapiens, BC1
[10] = test system: HuO-3N1; assay: cells; type: functional, cell-based; details: Homo sapiens;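 note: cell viability readout used to measure how strongly compounds suppress proliferation of human HuO-3N1 cells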
Description: SANGER: Inhibition of human HuO-3N1 cell growth in a cell viability assay.

[11] = test system: NCI-H810; assay: cells; type: functional, cell-based; details: Homo sapiens;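 note: IC50 reflects inhibition of cancer cell line growth, read out with a cell viability assay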
Description: SANGER: Inhibition of human NCI-H810 cell growth in a cell viability assay.

[12] = test system: UO-31; assay: cells; type: functional, cell-based; details: Homo sapiens
Description: SANGER: Inhibition of human U031 cell growth in a cell viability assay.

[13] = test system: 786-0; assay: cells; type: functional, cell-based; details: Homo sapiens
Description: SANGER: Inhibition of human 786-0 cell growth in a cell viability assay.

[14] = test system: ME-180; assay: cells; type: functional, cell-based; details: Homo sapiens;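 note: cell viability assay measuring growth inhibition of ME-180 cells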
Description: SANGER: Inhibition of human ME-180 cell growth in a cell viability assay.

[15] = test system: Detroit 562; assay: cells; type: functional, cell-based; details: Homo sapiens;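 note: growth inhibition of human Detroit 562 cells, read out by a cell viability assay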
Description: SANGER: Inhibition of human Detroit562 cell growth in a cell viability assay.

[16] = test system: MRK-nu-1; assay: cells; type: functional, cell-based, Homo sapiens; details: Homo sapiens, MRK-nu-1;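 note: cell viability assay measuring growth suppression of human MRK-nu-1 cells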
Description: SANGER: Inhibition of human MRK-nu-1 cell growth in a cell viability assay.

[17] = test system: COLO-741; assay: cells; type: functional, cell-based; details: Homo sapiens
Description: SANGER: Inhibition of human COLO-741 cell growth in a cell viability assay.

[18] = test system: SBC-5; assay: cells; type: functional, cell-based; details: Homo sapiens;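 note: cell viability assay read-out, IC50 is the concentration that inhibits growth of the cells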
Description: SANGER: Inhibition of human SBC-5 cell growth in a cell viability assay.

[19] = test system: KP-N-YN; assay: cells; type: functional, cell-based; details: Homo sapiens;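 note: growth inhibition of KP-N-YN cells, read out with a cell viability assay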
Description: SANGER: Inhibition of human KP-N-YN cell growth in a cell viability assay.

[20] = test system: RO82-W-1; assay: cells; type: functional, cell-based; details: Homo sapiens;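 note: growth inhibition of human RO82-W-1 cells, measured with a cell viability assay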
Description: SANGER: Inhibition of human RO82-W-1 cell growth in a cell viability assay.

[21] = test system: 8305C; assay: cells; type: functional, cell-based; details: Homo sapiens
Description: SANGER: Inhibition of human 8305C cell growth in a cell viability assay.

[22] = test system: SiHa; assay: cells; type: functional, cell-based; details: Homo sapiens;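 note: Viability-based readout of growth inhibition in SiHa cells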
Description: SANGER: Inhibition of human SiHa cell growth in a cell viability assay.

[23] = test system: UACC-893; assay: cells; type: functional, cell-based; details: Homo sapiens
Description: SANGER: Inhibition of human UACC-893 cell growth in a cell viability assay.

[24] = test system: SN12C; assay: cells; type: functional, cell-based; details: Homo sapiens;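 note: growth inhibition of human SN12C cells, measured by a cell viability assay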
Description: SANGER: Inhibition of human SN12C cell growth in a cell viability assay.

[25] = test system: SCC-4; assay: cells; type: functional, cell-based; details: Homo sapiens;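 note: growth inhibition of human SCC-4 cells, read out as cell viability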
Description: SANGER: Inhibition of human SCC-4 cell growth in a cell viability assay.

[26] = test system: PANC-03-27; assay: cells; type: functional, cell-based; details: Homo sapiens
Description: SANGER: Inhibition of human PANC-03-27 cell growth in a cell viability assay.

[27] = test system: LN-405; assay: cells; type: functional, cell-based; details: Homo sapiens
Description: SANGER: Inhibition of human LN-405 cell growth in a cell viability assay.

[28] = test system: T-24; assay: cells; type: functional, cell-based; details: Homo sapiens;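 note: growth inhibition of T-24 cells, read out with a cell viability assay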
Description: SANGER: Inhibition of human T-24 cell growth in a cell viability assay.

[29] = test system: RPMI-6666; assay: cells; type: functional, cell-based, Homo sapiens; details: Homo sapiens, RPMI-6666
Description: SANGER: Inhibition of human RPMI-6666 cell growth in a cell viability assay.

[30] = test system: MKN-28; assay: cells; type: functional, cell-based; details: Homo sapiens;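 note: cell viability assay read-out, IC50 reflects suppression of growth of human MKN-28 cells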
Description: SANGER: Inhibition of human MKN28 cell growth in a cell viability assay.

[31] = test system: MKN-7; assay: cells; type: functional, cell-based; details: Homo sapiens;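 note: growth inhibition of MKN-7 cells, read out with a cell viability assay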
Description: SANGER: Inhibition of human MKN7 cell growth in a cell viability assay.

[32] = test system: HuTu80; assay: cells; type: functional, cell-based, Homo sapiens, HUTU-80; details: Homo sapiens, HuTu80;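 note: growth inhibition of HuTu80 human cells, determined with a cell viability readout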
Description: SANGER: Inhibition of human HUTU-80 cell growth in a cell viability assay.

[33] = test system: EFO-21; assay: cells; type: functional, cell-based; details: Homo sapiens;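 note: growth inhibition of EFO-21 cells measured with a viability assay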
Description: SANGER: Inhibition of human EFO-21 cell growth in a cell viability assay.

[34] = test system: MC-IXC; assay: cells; type: functional, cell-based; details: Homo sapiens;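 note: growth inhibition of MC-IXC cells, read out with a cell viability assay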
Description: SANGER: Inhibition of human MC-IXC cell growth in a cell viability assay.

[35] = test system: A-431; assay: cells; type: functional, cell-based; details: Homo sapiens;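 note: growth inhibition of A-431 cells, determined with a cell viability read-out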
Description: SANGER: Inhibition of human A431 cell growth in a cell viability assay.

[36] = test system: HOP-92; assay: cells; type: functional, cell-based; details: Homo sapiens;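 note: cell viability readout, with IC50 reflecting inhibition of HOP-92 cell growth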
Description: SANGER: Inhibition of human HOP-92 cell growth in a cell viability assay.

[37] = test system: A204; assay: cells; type: functional, cell-based; details: Homo sapiens;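 note: growth inhibition of human A204 cells, read out with a cell viability assay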
Description: SANGER: Inhibition of human A204 cell growth in a cell viability assay.

[38] = test system: NCI-H748; assay: cells; type: functional, cell-based, Homo sapiens; details: Homo sapiens, NCI-H748;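 note: growth inhibition of NCI-H748 cells, measured by a cell viability assay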
Description: SANGER: Inhibition of human NCI-H748 cell growth in a cell viability assay.

[39] = test system: CP50-MEL-B; assay: cells; type: functional, cell-based; details: Homo sapiens;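 note: growth inhibition of the human cell line, measured with a cell viability read-out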
Description: SANGER: Inhibition of human CP50-MEL-B cell growth in a cell viability assay.

[40] = test system: Calu-3; assay: cells; type: functional, cell-based; details: Homo sapiens;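 note: growth inhibition of human Calu-3 cells, determined with a cell viability assay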
Description: SANGER: Inhibition of human Calu-3 cell growth in a cell viability assay.

[41] = test system: YT; assay: cells; type: functional, cell-based, Homo sapiens; details: Homo sapiens, YT
Description: SANGER: Inhibition of human YT cell growth in a cell viability assay.

[42] = test system: KARPAS-422; assay: cells; type: functional, cell-based, Homo sapiens; details: Homo sapiens, KARPAS-422
Description: SANGER: Inhibition of human KARPAS-422 cell growth in a cell viability assay.

[43] = test system: NCI-H2009; assay: cells; type: functional, cell-based; details: Homo sapiens;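 note: cell viability assay measuring inhibition of NCI-H2009 cell growth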
Description: SANGER: Inhibition of human NCI-H2009 cell growth in a cell viability assay.

[44] = test system: HuP-T3; assay: cells; type: functional, cell-based; details: Homo sapiens;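 note: HuP-T3 cell growth inhibition, read out with a cell viability assay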
Description: SANGER: Inhibition of human HuP-T3 cell growth in a cell viability assay.

[45] = test system: SW48; assay: cells; type: functional, cell-based; details: Homo sapiens;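 note: growth inhibition of SW48 cells, read out with a cell viability assay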
Description: SANGER: Inhibition of human SW48 cell growth in a cell viability assay.

[46] = test system: ABC-1; assay: cells; type: functional, cell-based; details: Homo sapiens;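 note: growth inhibition of human ABC-1 cells, read out by a cell viability assay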
Description: SANGER: Inhibition of human ABC-1 cell growth in a cell viability assay.

[47] = test system: C32; assay: cells; type: functional, cell-based; details: Homo sapiens;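 note: cell viability assay, with IC50 reflecting inhibition of C32 cell growth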
Description: SANGER: Inhibition of human C32 cell growth in a cell viability assay.

[48] = test system: 639-V; assay: cells; type: functional, cell-based; details: Homo sapiens;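 note: growth inhibition of 639-V cells, read out with a cell viability assay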
Description: SANGER: Inhibition of human 639-V cell growth in a cell viability assay.

[49] = test system: BEN; assay: cells; type: functional, cell-based; details: Homo sapiens;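 note: growth inhibition of the BEN cell line, read out with a cell viability assay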
Description: SANGER: Inhibition of human BEN cell growth in a cell viability assay.

[50] = test system: VM-CUB-1; assay: cells; type: functional, cell-based; details: Homo sapiens;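 note: cell viability assay measuring growth inhibition of the human VM-CUB-1 cell line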
Description: SANGER: Inhibition of human VM-CUB-1 cell growth in a cell viability assay.

[51] = test system: G-361; assay: cells; type: functional, cell-based; details: Homo sapiens
[52] = test system: HCC1954; assay: cells; type: functional, cell-based; details: Homo sapiens;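 note: growth inhibition of human HCC1954 cells, read out with a cell viability assay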
Description: SANGER: Inhibition of human HCC1954 cell growth in a cell viability assay.

[53] = test system: NCI-H2405; assay: cells; type: functional, cell-based; details: Homo sapiens;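 note: growth inhibition of the human cell line, read out with a cell viability assay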
Description: SANGER: Inhibition of human NCI-H2405 cell growth in a cell viability assay.

[54] = test system: KMS-12-PE; assay: cells; type: functional, cell-based, Homo sapiens; details: Homo sapiens, KMS-12-PE;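 note: growth inhibition of human KMS-12-PE cells, measured with a cell viability assay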
Description: SANGER: Inhibition of human KMS-12-PE cell growth in a cell viability assay.

[55] = test system: MEL-JUSO; assay: cells; type: functional, cell-based; details: Homo sapiens;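 note: growth inhibition of human MEL-JUSO cells, read out with a cell viability assay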
Description: SANGER: Inhibition of human MEL-JUSO cell growth in a cell viability assay.

[56] = test system: BOKU; assay: cells; type: functional, cell-based; details: Homo sapiens;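 note: growth inhibition of the human BOKU cell line, read out by a cell viability assay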
Description: SANGER: Inhibition of human BOKU cell growth in a cell viability assay.

[57] = test system: DMS-153; assay: cells; type: functional, cell-based, Homo sapiens; details: Homo sapiens, DMS-153
Description: SANGER: Inhibition of human DMS-153 cell growth in a cell viability assay.

[58] = test system: TE-441-T; assay: cells; type: functional, cell-based, Homo sapiens; details: Homo sapiens, TE-441-T
Description: SANGER: Inhibition of human TE-441-T cell growth in a cell viability assay.

## COc1ccc(-c2cc3nccn3c(Nc3ncccc3C(N)=O)n2)cc1OC
[1]
  IC50: > 8 µM
[2]
  IC50: > 8 µM
[3]
  IC50: > 8 µM
[4]
  IC50: > 8 µM
[5]
  IC50: 4.15 µM
[6]
  IC50: 7.22 µM
[7]
  IC50: 2.95 µM
[8]
  IC50: > 8 µM
[9]
  IC50: 1.07 µM
[10]
  IC50: > 8 µM
[11]
  IC50: 4.44 µM
[12]
  IC50: 6.71 µM
[13]
  IC50: 1.36 µM
[14]
  IC50: > 8 µM
[15]
  IC50: 3.88 µM
[16]
  IC50: 2.91 µM
[17]
  IC50: > 8 µM
[18]
  IC50: > 8 µM
[19]
  IC50: > 8 µM
[20]
  IC50: > 8 µM
[21]
  IC50: 2.42 µM
[22]
  IC50: > 8 µM
[23]
  IC50: > 8 µM
[24]
  IC50: > 8 µM
[25]
  IC50: > 8 µM
[26]
  IC50: 5.56 µM
[27]
  IC50: > 8 µM
[28]
  IC50: > 8 µM
[29]
  IC50: 1.44 µM
[30]
  IC50: 4.49 µM
[31]
  IC50: > 8 µM
[32]
  IC50: 1.81 µM
[33]
  IC50: > 8 µM
[34]
  IC50: > 8 µM
[35]
  IC50: 1.73 µM
[36]
  IC50: > 8 µM
[37]
  IC50: > 8 µM
[38]
  IC50: > 8 µM
[39]
  IC50: > 8 µM
[40]
  IC50: > 8 µM
[41]
  IC50: 2.34 µM
[42]
  IC50: 2.5 µM
[43]
  IC50: > 8 µM
[44]
  IC50: > 8 µM
[45]
  IC50: 7.73 µM
[46]
  IC50: > 8 µM
[47]
  IC50: > 8 µM
[48]
  IC50: 1.43 µM
[49]
  IC50: > 8 µM
[50]
  IC50: > 8 µM
[51]
  IC50: 4.3 µM
[52]
  IC50: > 8 µM
[53]
  IC50: > 8 µM
[54]
  IC50: > 8 µM
[55]
  IC50: 2.74 µM
[56]
  IC50: > 8 µM
[57]
  IC50: > 8 µM
[58]
  IC50: 3.96 µM

## OC[C@H](Cc1ccccc1)Nc1nc(Oc2ccc3c(c2)CCC3)nc2c1ncn2Cc1ccc(-c2ccccc2)cc1
[1]
  IC50: > 10.2 µM
[2]
  IC50: > 10.2 µM
[3]
  IC50: > 10.2 µM
[4]
  IC50: > 10.2 µM
[5]
  IC50: > 10.2 µM
[6]
  IC50: 6.97 µM
[7]
  IC50: 8.39 µM
[8]
  IC50: > 10.2 µM
[9]
  IC50: > 10.2 µM
[10]
  IC50: > 10.2 µM
[11]
  IC50: 3.89 µM
[12]
  IC50: > 10.2 µM
[13]
  IC50: 1.26 µM
[14]
  IC50: > 10.2 µM
[15]
  IC50: > 10.2 µM
[16]
  IC50: > 10.2 µM
[17]
  IC50: > 10.2 µM
[18]
  IC50: > 10.2 µM
[19]
  IC50: > 10.2 µM
[20]
  IC50: > 10.2 µM
[21]
  IC50: 2.76 µM
[22]
  IC50: > 10.2 µM
[23]
  IC50: > 10.2 µM
[24]
  IC50: > 10.2 µM
[25]
  IC50: > 10.2 µM
[26]
  IC50: 7.89 µM
[27]
  IC50: > 10.2 µM
[28]
  IC50: > 10.2 µM
[29]
  IC50: > 10.2 µM
[30]
  IC50: 1.73 µM
[31]
  IC50: > 10.2 µM
[32]
  IC50: 1.31 µM
[33]
  IC50: > 10.2 µM
[34]
  IC50: > 10.2 µM
[35]
  IC50: 3.32 µM
[36]
  IC50: > 10.2 µM
[37]
  IC50: > 10.2 µM
[38]
  IC50: > 10.2 µM
[39]
  IC50: > 10.2 µM
[40]
  IC50: > 10.2 µM
[41]
  IC50: > 10.2 µM
[42]
  IC50: 4.93 µM
[43]
  IC50: > 10.2 µM
[44]
  IC50: > 10.2 µM
[45]
  IC50: > 10.2 µM
[46]
  IC50: > 10.2 µM
[47]
  IC50: > 10.2 µM
[48]
  IC50: 1.15 µM
[49]
  IC50: > 10.2 µM
[50]
  IC50: > 10.2 µM
[51]
  IC50: 2.06 µM
[52]
  IC50: 10 µM
[53]
  IC50: > 10.2 µM
[54]
  IC50: > 10.2 µM
[55]
  IC50: 7.9 µM
[56]
  IC50: > 10.2 µM
[57]
  IC50: > 10.2 µM
[58]
  IC50: > 10.2 µM

## CCCCCCCCCCCC1=C(O)C(=O)C=C(O)C1=O [EMBELIN]
[1]
  IC50: > 32 µM
[2]
  IC50: 22.6 µM
[3]
  IC50: > 32 µM
[4]
  IC50: > 32 µM
[5]
  IC50: > 32 µM
[6]
  IC50: 6.38 µM
[7]
  IC50: 5.11 µM
[8]
  IC50: 6.88 µM
[9]
  IC50: 5.03 µM
[10]
  IC50: > 32 µM
[11]
  IC50: 7.73 µM
[12]
  IC50: 19.1 µM
[13]
  IC50: 8.64 µM
[14]
  IC50: 30.6 µM
[15]
  IC50: 11.5 µM
[16]
  IC50: 12.9 µM
[17]
  IC50: 7.42 µM
[18]
  IC50: > 32 µM
[19]
  IC50: > 32 µM
[20]
  IC50: > 32 µM
[21]
  IC50: 25.7 µM
[22]
  IC50: > 32 µM
[23]
  IC50: 21.7 µM
[24]
  IC50: 26.6 µM
[25]
  IC50: 17.4 µM
[26]
  IC50: > 32 µM
[27]
  IC50: 18.8 µM
[28]
  IC50: > 32 µM
[29]
  IC50: 8.67 µM
[30]
  IC50: 10 µM
[31]
  IC50: > 32 µM
[32]
  IC50: 2.35 µM
[33]
  IC50: 15.6 µM
[34]
  IC50: 5.39 µM
[35]
  IC50: 5.76 µM
[36]
  IC50: 7.88 µM
[37]
  IC50: 17.4 µM
[38]
  IC50: > 32 µM
[39]
  IC50: > 32 µM
[40]
  IC50: 8.45 µM
[41]
  IC50: 12.8 µM
[42]
  IC50: 20.7 µM
[43]
  IC50: 11.9 µM
[44]
  IC50: > 32 µM
[45]
  IC50: 31.1 µM
[46]
  IC50: > 32 µM
[47]
  IC50: 2.83 µM
[48]
  IC50: > 32 µM
[49]
  IC50: > 32 µM
[50]
  IC50: 10.8 µM
[51]
  IC50: 5.9 µM
[52]
  IC50: 11.3 µM
[53]
  IC50: 8 µM
[54]
  IC50: > 32 µM
[55]
  IC50: 7.85 µM
[56]
  IC50: 10.7 µM
[57]
  IC50: > 32 µM
[58]
  IC50: > 32 µM
